Test results reported in patent US20160235866A1, “MRI CONTRAST AGENTS FOR CELL LABELING” (THE GOVERNING COUNCIL OF THE UNIVERSITY OF TORONTO, priority 2013, published 2016).
“Also recorded” adds a separate entry of the source.

How the values were obtained:
[1] = tested on: Human breast cancer cells MDA-MB-231; test: Viability by trypan blue exclusion test after cell labeling; type: cell-based; conditions: for Viability (%) (±SEM): 83 μM incubation, MDA-MB-231
Experimental: (§1) Human breast cancer cells MDA-MB-231 were grown at 37° C. with 5% CO2 in 1640-RPMI medium supplemented with 10% fetal bovine serum and 0.5% penicillin streptomycin. Contrast agents were quantified for manganese content by flame AAS prior to cell labeling. MnTCP was dissolved in ultrapure water and MnTriAMP was dissolved in DMSO to give 17 mM stock solutions. The stock solutions were added to the medium with the cells resulting in 83 μM incubation of 2-MnTriAMP or 1-MnTCP for 2 hours. The medium was removed and the cells were washed with fresh medium 5× and then were harvested by washing with PBS followed by addition of 0.05% trypsin EDTA to detach the cells. Viability was assessed directly after labeling with trypan blue exclusion test and observation of cell morphology by phase microscopy.

[2] = tested on: MDA-MB-231 breast cancer cell pellets; test: MRI T1 and T2 time measurements of labeled cell pellets; type: cell-based, Human; conditions: MDA-MB-231 cell pellets after 83 μM incubation for 2 hours
Experimental: as §1
For MRI, cell pellets were formed by centrifugation at 440 g for 10 minutes. Subsequent MR was done with a T1-weighted 2D spin-echo image: TR=100 ms, TE=14.163 ms, 3 mm slice thickness, 0.5×0.5 mm in-plane resolution (FIG. 1).

[3] = tested on: Human breast cancer cells MDA-MB-231; test: Intracellular contrast agent concentration by GFAAS of cell digests; type: cell-based; conditions: for Mn / Mn content per cell relative to control: GFAAS of cell digests; for Mn: 83 μM incubation for 2 hours; for Mn content per cell relative to control: control = 1
Experimental: as §1
The intracellular contrast agent concentration was determined after cell labeling by centrifugation of a known number of cells followed by removal of the supernatant and digestion of the cells by addition of 1 M nitric acid (0.5 ml) and 30 min of heating at 70° C. Then 3 ml of ultrapure water was added to the digested cells, the mixture was filtered and then quantified by graphite furnace atomic absorption spectroscopy (GFAAS) shown in Table 3.

[4] = 0.47 T (20 MHz for 1H Larmor frequency), 37° C.; cited from earlier work

Compound	Viability (%) (±SEM) ([1]; 0 hours after 2 h treatment)	Viability (%) (±SEM) ([1]; 3 days after 2 h treatment)	toxicity / cell viability after labeling (in words) ([1]; MDA-MB-231 after labeling)	T1 [2]	T2 [2]	Mn [3]	Mn content per cell relative to control [3]	cellular uptake (in words) ([3]; MDA-MB-231, compared to 1-MnTCP, from relaxation times and GFAAS data)	relaxivity [4]
[5-carboxy-10,15,20-tris(acetoxymethylcarboxy)porphyrinato]manganese(III) [2-MnTriAMP]	97 ± 2%	87 ± 6%	without affecting the cell viability	215.4 ± 12.1 ms	66.7 ± 4.4 ms	6.05E−13 mM/cell	105.83	significant uptake; also recorded: sufficient cellular uptake and retention	
MnTPPS									~12 mM⁻¹ s⁻¹
O=C(O)c1c2nc(c(C(=O)O)c3ccc([n-]3)c(C(=O)O)c3nc(c(C(=O)O)c4ccc1[n-]4)C=C3)C=C2.[Cl-].[Mn+3] [1-MnTCP, [5,10,15,20-tetrakis(carboxy)porphyrinato]manganese(III) chloride]	98 ± 1%	80 ± 6%		1072.1 ± 28.0 ms	108.1 ± 9.3 ms	1.90E−13 mM/cell	33.22		
